Source: paper PMC3388869, “High-affinity multivalent wheat germ agglutinin ligands by one-pot click reaction” (Beilstein Journal of Organic Chemistry, 2012)
Like-named read-outs stand apart in the source and are kept apart here.

Key:
[1] = target: T1, wheat germ agglutinin (WGA) (Triticum aestivum, UniProt P10969); test: enzyme-linked lectin assay (ELLA): inhibition of binding of HRP-labeled WGA to covalently immobilized GlcNAc; design: species or system Triticum vulgaris; settings: for β (relative inhibitory potency): referenced to N,N'-diacetylchitobiose (β = 1); for fold lower IC50 value than GlcNAc: relative to GlcNAc
T1 sequence (P10969 1-171 limits assumed): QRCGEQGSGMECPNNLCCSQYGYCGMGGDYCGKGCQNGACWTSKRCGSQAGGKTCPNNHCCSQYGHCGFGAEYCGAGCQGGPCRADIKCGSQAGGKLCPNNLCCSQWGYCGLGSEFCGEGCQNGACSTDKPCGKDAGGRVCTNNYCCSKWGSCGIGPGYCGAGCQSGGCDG
Experimental: Binding potencies of compounds C1–C6, GlcNAc, and N,N’-diacetylchitobiose were determined by an ELLA employing covalently immobilized GlcNAc as a reference ligand, as described recently. GlcNAc-coated microtiter plates were incubated with mixtures of horseradish-peroxidase-labeled WGA (HRP-WGA) and synthetic WGA ligands in varying concentrations. After incubation, the plates were washed and the remaining HRP-WGA bound to the microtiter plates was quantified by a HRP-catalyzed color reaction. From these curves the concentrations at which the binding of HRP–WGA to GlcNAc is reduced by 50% (IC50 values) were determined as a measure of the potency of the synthesized inhibitors (Table 2). Also shown in Table 2 are the relative inhibitory potencies (β values) referenced to N,N’-diacetylchitobiose (β = 1).

WGA = test system: WGA; design: method as in PMID 1472499; settings: WGA–ligand interaction; cited from earlier work
[2] = inhibition of binding of HRP-labeled WGA to covalently immobilized GlcNAc, read-out: IC50

Row | SMILES | IC50 [1, 2] [µM] | β (relative inhibitory potency) [1] | association constant K (WGA) | IC50 ([1]; calculated per contained chitobiose, read-out: IC50 per contained chitobiose) [µM] | fold increased inhibition potency over the best divalent ligand C4 ([1]; relative to C4) | fold lower IC50 value than GlcNAc [1] | relative potency per chitobiose residue ([1]; relative to N,N'-diacetylchitobiose, per chitobiose residue)
1 | CC(=O)N[C@@H]1[C@@H](O)[C@H](O)[C@@H](CO)O[C@H]1O [GlcNAc, N-acetylglucosamine, reference compound] | 51000 | 1/82 | 2 × 10^2 to 1.3 × 10^3 M^–1 |  |  |  | 
2 | CC(=O)N[C@H]1[C@H](OCc2cn(CCN(CCn3cc(CO[C@@H]4O[C@H](CO)[C@@H](O[C@@H]5O[C@H](CO)[C@@H](O)[C@H](O)[C@H]5NC(C)=O)[C@H](O)[C@H]4NC(C)=O)nn3)CCn3cc(CO[C@@H]4O[C@H](CO)[C@@H](O[C@@H]5O[C@H](CO)[C@@H](O)[C@H](O)[C@H]5NC(C)=O)[C@H](O)[C@H]4NC(C)=O)nn3)nn2)O[C@H](CO)[C@@H](O[C@@H]2O[C@H](CO)[C@@H](O)[C@H](O)[C@H]2NC(C)=O)[C@@H]1O [C6] | 0.22 | 2800 |  | 0.66 | 2.8 | 230000 | 
3 | CC(=O)N[C@H]1[C@H](O[C@H]2[C@H](O)[C@@H](NC(C)=O)C(O)O[C@@H]2CO)O[C@H](CO)[C@@H](O)[C@@H]1O (stereo partly drawn) [N,N'-diacetylchitobiose, reference compound] | 620 | 1 | 5 × 10^3 to 2 × 10^4 M^–1 |  |  | 82 | 
4 | CC(=O)N[C@H]1[C@H](OCc2cn(CCCOCCOCCOCCCn3cc(CO[C@@H]4O[C@H](CO)[C@@H](O[C@@H]5O[C@H](CO)[C@@H](O)[C@H](O)[C@H]5NC(C)=O)[C@H](O)[C@H]4NC(C)=O)nn3)nn2)O[C@H](CO)[C@@H](O[C@@H]2O[C@H](CO)[C@@H](O)[C@H](O)[C@H]2NC(C)=O)[C@@H]1O [C5] | 0.72 |  |  |  |  |  | 
5 | CC(=O)N[C@H]1[C@H](OCc2cn(Cc3cccc(Cn4cc(CO[C@@H]5O[C@H](CO)[C@@H](O[C@@H]6O[C@H](CO)[C@@H](O)[C@H](O)[C@H]6NC(C)=O)[C@H](O)[C@H]5NC(C)=O)nn4)c3)nn2)O[C@H](CO)[C@@H](O[C@@H]2O[C@H](CO)[C@@H](O)[C@H](O)[C@H]2NC(C)=O)[C@@H]1O [C2] | 1.3 | 480 |  |  |  |  | 
6 | CC(=O)N[C@H]1[C@H](OCc2cn(CCCOCCCCOCCCn3cc(CO[C@@H]4O[C@H](CO)[C@@H](O[C@@H]5O[C@H](CO)[C@@H](O)[C@H](O)[C@H]5NC(C)=O)[C@H](O)[C@H]4NC(C)=O)nn3)nn2)O[C@H](CO)[C@@H](O[C@@H]2O[C@H](CO)[C@@H](O)[C@H](O)[C@H]2NC(C)=O)[C@@H]1O [C4] | 0.6 |  |  |  |  |  | 500
7 | CC(=O)N[C@H]1[C@H](OCc2cn(Cc3ccccc3)nn2)O[C@H](CO)[C@@H](O[C@@H]2O[C@H](CO)[C@@H](O)[C@H](O)[C@H]2NC(C)=O)[C@@H]1O [C1] | 290 | 2.1 |  |  |  |  | 
8 | CC(=O)N[C@H]1[C@H](OCc2cn(Cc3ccc(Cn4cc(CO[C@@H]5O[C@H](CO)[C@@H](O[C@@H]6O[C@H](CO)[C@@H](O)[C@H](O)[C@H]6NC(C)=O)[C@H](O)[C@H]5NC(C)=O)nn4)cc3)nn2)O[C@H](CO)[C@@H](O[C@@H]2O[C@H](CO)[C@@H](O)[C@H](O)[C@H]2NC(C)=O)[C@@H]1O [C3] | 1.9 | 330 |  |  |  |  | 
